Values of other authors as cited in patent US8962594B2, “Method of using nutritional compounds dihydroquercetin (taxifolin) and arabinogalactan in combination with dihydroquercetin (taxifolin) to reduce and control cardiometabolic risk factors associated with metabolic syndrome and hypercholesterolemia” (Flavitpure, Inc., priority 2012, dated 2015).

Experiments:
RBCs [1] = settings: remaining hemolysis; vehicle 75.7±5.2%, P<0.001
RGC-5 cells = settings: read-out: EC50 for protection of RGC-5 cells from oxidative stress induced by GSH depletion
rats = rats treated with high levels for long periods of time
[2] = test system: Glutathione prexidase (GPx); settings: 25 and 50 μM
[3] = test system: diacylglycerol acyltransferase (DGAT); settings: non-competitive
HepG2 cells = settings: 200 umol, within 24 h
PPARa = settings: supplementation of HepG2 cells
[4] = molecular target: T1, microsomal triglyceride transfer protein (MTP) (Homo sapiens, UniProt P55157)
T1 construct: endogenous in cells; host or cells: HepG2
T1 sequence (P55157 19-894): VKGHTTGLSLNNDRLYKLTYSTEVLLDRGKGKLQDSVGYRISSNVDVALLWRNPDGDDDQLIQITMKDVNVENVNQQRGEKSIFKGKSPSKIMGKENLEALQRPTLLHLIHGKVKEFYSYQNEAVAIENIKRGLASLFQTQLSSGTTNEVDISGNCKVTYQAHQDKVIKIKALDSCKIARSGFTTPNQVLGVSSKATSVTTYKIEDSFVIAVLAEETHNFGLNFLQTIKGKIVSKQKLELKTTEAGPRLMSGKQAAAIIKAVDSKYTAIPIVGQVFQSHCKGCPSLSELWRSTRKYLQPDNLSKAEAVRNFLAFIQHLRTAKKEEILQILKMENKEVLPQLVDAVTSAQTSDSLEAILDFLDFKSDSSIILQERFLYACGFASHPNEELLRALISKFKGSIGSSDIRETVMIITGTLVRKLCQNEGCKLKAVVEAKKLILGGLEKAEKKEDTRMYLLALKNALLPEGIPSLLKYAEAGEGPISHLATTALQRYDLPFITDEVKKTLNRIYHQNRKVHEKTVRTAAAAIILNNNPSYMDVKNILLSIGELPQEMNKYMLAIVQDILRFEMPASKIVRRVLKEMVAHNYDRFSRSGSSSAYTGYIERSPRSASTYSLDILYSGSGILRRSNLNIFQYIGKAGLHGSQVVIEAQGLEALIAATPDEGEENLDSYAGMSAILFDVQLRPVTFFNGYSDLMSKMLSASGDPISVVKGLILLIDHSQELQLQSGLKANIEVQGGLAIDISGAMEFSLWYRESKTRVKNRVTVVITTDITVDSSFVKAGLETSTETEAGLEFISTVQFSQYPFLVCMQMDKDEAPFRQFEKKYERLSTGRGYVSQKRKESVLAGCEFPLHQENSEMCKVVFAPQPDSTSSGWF

HMG-CoA reductase = molecular target: T2, HMG-CoA reductase (Homo sapiens, UniProt P04035)
T2 construct: endogenous in cells; host or cells: HepG2
T2 sequence (P04035 1-888): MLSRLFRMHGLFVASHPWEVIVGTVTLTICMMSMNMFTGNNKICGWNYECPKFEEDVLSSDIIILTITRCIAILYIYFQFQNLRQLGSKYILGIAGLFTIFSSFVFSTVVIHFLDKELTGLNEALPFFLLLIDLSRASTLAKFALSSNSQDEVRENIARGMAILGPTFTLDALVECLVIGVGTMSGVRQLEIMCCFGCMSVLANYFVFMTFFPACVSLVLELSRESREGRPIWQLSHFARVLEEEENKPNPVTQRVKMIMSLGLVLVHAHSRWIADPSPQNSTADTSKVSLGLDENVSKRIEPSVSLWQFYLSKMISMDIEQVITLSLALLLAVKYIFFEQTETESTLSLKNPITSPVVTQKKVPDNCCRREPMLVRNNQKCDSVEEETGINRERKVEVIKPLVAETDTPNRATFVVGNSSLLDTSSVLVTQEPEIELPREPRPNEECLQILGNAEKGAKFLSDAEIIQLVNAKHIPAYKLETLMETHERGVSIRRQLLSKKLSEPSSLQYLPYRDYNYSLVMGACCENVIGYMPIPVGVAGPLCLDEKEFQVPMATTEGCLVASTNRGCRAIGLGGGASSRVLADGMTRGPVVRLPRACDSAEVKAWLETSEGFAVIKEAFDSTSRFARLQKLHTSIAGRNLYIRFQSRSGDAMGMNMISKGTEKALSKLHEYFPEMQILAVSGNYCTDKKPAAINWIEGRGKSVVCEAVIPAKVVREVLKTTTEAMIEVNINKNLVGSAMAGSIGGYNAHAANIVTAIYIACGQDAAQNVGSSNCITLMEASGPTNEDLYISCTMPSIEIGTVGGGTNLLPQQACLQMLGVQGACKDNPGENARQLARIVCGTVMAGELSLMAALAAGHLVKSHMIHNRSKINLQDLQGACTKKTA

[5] = test system: apolipoprotein A-I (apoA-I); settings: pulse-chase, HepG2 cells
[6] = test system: CNS-derived mouse HT22 cells; settings: read-out: EC50 for protection of HT22 cells from a similar insult
RBCs [7] = settings: pre-incubation of RBCs with water-soluble compound for 30 min; remaining hemolysis
TNF-α = settings: LPS-stimulated PBMC, pre-treated
IL-1β = settings: LPS-stimulated PBMC, pre-treated

SMILES	phospholipase C-induced hemolysis (RBCs [1]) [%]	EC50 (RGC-5 cells) [µM]	toxic effects (rats)	Glutathione prexidase (GPx) protein level [2]	decrease in DGAT activity (change) [3] [%]	reduction of apoB secretion (apolipoprotein B (apoB); basal and lipid-rich conditions, 200 micromol/L)	average reduction in labeled apoB in the medium (apolipoprotein B (apoB); pulse-chase, HepG2 cells)	inhibition of cholesterol synthesis (HepG2 cells)	PPARa expression (PPARa)	DGAT-2 mRNA expression (DGAT-2 mRNA)	inhibition of MTP [4] [%]	TG transfer into the microsomal lumen (change) (microsomal TG synthesis) [%]	inhibition of microsomal TG synthesis (microsomal TG synthesis) [%]	inhibition of HMG-CoA reductase activity (HMG-CoA reductase)	increase of ApoA-I secretion [5]	EC50 [6] [µM]	DGAT-1 mRNA expression (DGAT-1 mRNA)	peroxyl radical (AAPH)-induced hemolysis reduced to (RBCs [7]) [%]	mean inhibition of the secretion of TNF-α (TNF-α) [%]	inhibition of IL-1β secretion (IL-1β) [%]
O=C1c2c(O)cc(O)cc2OC(c2ccc(O)c(O)c2)C1O (racemic) [Dihydroquercetin (taxifolin)]	45.4±10.0	30	No toxic effects	significantly increased	−35	up to 63%	61+−8%	86+−3%	increase	essentially unchanged	41	−26	37	47+−7%	36+−10%	> 50	essentially unchanged	32.5±5.6		
O=C(O)Cc1ccc(O)c(O)c1 [3,4-DHPAA, 3,4-dihydroxyphenylacetic acid]																			86.4	97.9
